Earlier results, collected in patent US9309233B2, “Compositions and methods for the treatment of blood clotting disorders” (CELLIX BIO PRIVATE LIMITED, priority 2012, dated 2016).

Row | oral bioavailability (oral) | time at which plasma levels peak (plasma levels of dabigatran after drug administration (dabigatran etexilate)) | SMILES
1 | ≈ 6% |  | CCCCCCOC(=O)NC(=N)c1ccc(NCc2nc3cc(C(=O)N(CCC(=O)OCC)c4ccccn4)ccc3n2C)cc1 [Dabigatran etexilate]
2 |  | ≈ 2 hours | [H]/N=C(/N)c1ccc(NCc2nc3cc(C(=O)N(CCC(=O)O)c4ccccn4)ccc3n2C)cc1 [dabigatran]
